The IC50 is the point on the concentration scale where inhibition reaches its midpoint.

Molecules are shown by their SMILES. Where a name gives a salt, the structure may show the parent alone. Read-outs that look alike come from different tables or passages of the source.

The text below walks through data of US11352322B2, “Cyclopropyl-amide compounds as dual LSD1/HDAC inhibitors” (Jubilant Epicore LLC, priority 2016, dated 2022).

A short description of data set [1]: Metabolic stability in liver microsomes, HLM. To be noted: 1 μM, NADPH. In general terms: Liver microsomes are a subcellular fraction often used to study metabolism.
Method: (§4) The microsomal suspension was prepared by adding liver microsomes to 100 mM potassium phosphate buffer (pH7.4) to give a final protein concentration of 0.5 mg/mL. The stock solution of NCE (10 mM in DMSO) was added to the microsomes to provide a final concentration of 1 μM. […] Samples were vortexed and centrifuged at 5,000 rpm for 10 min to remove proteins. Supernatant were analyzed on LC-MS/MS.
Data set [2] is described as follows: Metabolic stability in liver microsomes, MLM. To be noted: 1 μM, NADPH.
Method: as §4
For the next data set, the system named is CCRF-CEM. In words: cells. To be noted: Homo sapiens, 144 h, read-out: Anticancer profileration EC50 CCRF-CEM. The method, then: (§1) Anticancer Activity: Alamar Blue Assay
Cells were seeded at 5000 cells/per well in 96-well tissue culture plate and incubated at 37° C./5% CO2. After 16-24 hours, fresh media was added to the wells. Compounds were then (1% DMSO conc.) added to the cells at 10 concentrations ranging from 10-0.0005 uM prepared in 3-fold serial dilutions. Cells were incubated for 68-72 h at 37° C./5% CO2. Alamar Blue™ reagent was added and incubated for 1-3 hours at 37° C./5% CO2. Plates were read on fluorescence reader at 540 nm excitation, 590 nm emission wave lengths.
(§2) As described above, compounds were tested for anticancer activities in different tumor cell lines and GI50 were determined.

The target in a further data set is LSD1 (Homo sapiens (Human), UniProt O60341). In words: TR-FRET Assay for LSD1. To be noted: read-out: LSD1 IC50. For orientation: Time-resolved FRET reads energy transfer from a long-lived donor to a nearby acceptor.
Another data set concerns MV-4-11. Put plainly: cells. To be noted: Homo sapiens, MV4-11, 144 h, read-out: Anticancer profileration EC50 MV-4-11. As for the experimental part:
as §1
(§3) Cells were seeded at 5000 cells/per well in 96-well tissue culture plate and incubated at 37° C./5% CO2. After 16-24 hours, fresh media was added to the wells. Compounds were then (1% DMSO conc.) added to the cells at 10 concentrations ranging from 10-0.0005 uM prepared in 3-fold serial dilutions. […] Alamar Blue™ reagent was added and incubated for 1-3 hours at 37° C./5% CO2. Plates were read on fluorescence reader at 540 nm excitation, 590 nm emission wave lengths.
as §2

Another data set relates to HEL-92.1.7. Put plainly: cells. The note with it: Homo sapiens, HEL 92.1.7, 144 h, read-out: Anticancer profileration EC50 HEL-92.1.7. As for the experimental part:
as §1, §3, §2

The test system of a further data set is OCI-AML3. Put plainly: cells. The note with it: Homo sapiens, OCI-AML-3, 144 h, read-out: Anticancer profileration EC50 OCI-AML3. As for the experimental part: as §1, §3, §2
For a further data set, the system named is A375. In words: cells. To be noted: Homo sapiens, A-375, 144 h, read-out: Anticancer profileration EC50 A375. The method, then: as §1, §3, §2
A further data set has as its system MDAMB231. Put plainly: cells. To be noted: Homo sapiens, MDA-MB-231, 144 h, read-out: Anticancer profileration EC50 MDAMB231. As for the experimental part:
as §1, §3, §2

The subject of another data set is MM1S. Put plainly: Anticancer activity: Alamar Blue assay, MM1S. Type of data set: cell-based. The note with it: Homo sapiens, MM1.S, read-out: MM1S EC50. For orientation: The colour change of resazurin is a common sign of viable cells or microbes.
The target of data set [3] is HDAC6 human recombinant enzyme (Homo sapiens (Human), UniProt Q9UBN7). Put plainly: Histone Deacetylase Assay (BPS Biosciences), HDAC6. In kind it is biochemical. An excerpt: Histone Deacetylase Assay (BPS Biosciences)
HDAC6 human recombinant enzyme, sequence (Q9UBN7 whole entry): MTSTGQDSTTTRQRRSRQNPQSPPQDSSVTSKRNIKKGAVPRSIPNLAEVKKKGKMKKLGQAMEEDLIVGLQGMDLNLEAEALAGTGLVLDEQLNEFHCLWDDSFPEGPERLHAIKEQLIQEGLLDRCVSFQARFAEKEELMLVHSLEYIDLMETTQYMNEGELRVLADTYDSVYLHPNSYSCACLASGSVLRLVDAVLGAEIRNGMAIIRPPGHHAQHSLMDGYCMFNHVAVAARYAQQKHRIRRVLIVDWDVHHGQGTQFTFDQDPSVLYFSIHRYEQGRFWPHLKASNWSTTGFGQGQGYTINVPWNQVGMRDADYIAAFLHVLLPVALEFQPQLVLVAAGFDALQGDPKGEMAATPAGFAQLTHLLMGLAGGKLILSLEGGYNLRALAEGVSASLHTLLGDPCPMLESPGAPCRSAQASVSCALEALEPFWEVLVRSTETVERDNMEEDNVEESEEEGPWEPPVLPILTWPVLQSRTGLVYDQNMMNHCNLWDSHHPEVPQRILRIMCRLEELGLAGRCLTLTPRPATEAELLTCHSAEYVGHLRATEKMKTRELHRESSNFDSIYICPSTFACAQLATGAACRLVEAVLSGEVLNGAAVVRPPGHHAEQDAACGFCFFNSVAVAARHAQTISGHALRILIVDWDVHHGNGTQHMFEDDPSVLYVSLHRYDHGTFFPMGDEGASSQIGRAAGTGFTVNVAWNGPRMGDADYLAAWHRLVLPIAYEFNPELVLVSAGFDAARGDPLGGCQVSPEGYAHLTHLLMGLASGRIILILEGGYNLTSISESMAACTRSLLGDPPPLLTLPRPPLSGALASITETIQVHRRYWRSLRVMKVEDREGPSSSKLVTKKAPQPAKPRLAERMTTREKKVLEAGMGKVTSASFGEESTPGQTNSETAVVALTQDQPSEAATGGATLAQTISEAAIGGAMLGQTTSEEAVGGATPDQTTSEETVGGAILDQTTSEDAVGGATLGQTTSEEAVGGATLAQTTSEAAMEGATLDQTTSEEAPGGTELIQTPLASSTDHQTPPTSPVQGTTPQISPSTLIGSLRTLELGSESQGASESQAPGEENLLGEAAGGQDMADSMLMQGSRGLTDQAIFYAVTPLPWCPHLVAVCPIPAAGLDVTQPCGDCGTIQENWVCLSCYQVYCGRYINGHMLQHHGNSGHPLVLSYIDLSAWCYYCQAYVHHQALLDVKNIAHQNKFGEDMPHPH
Histone deacetylase assay was done as per manufacturer's instructions.

The conditions of data set [4]: mouse, microsomes, 0.5 h, pH 7.4.
Method: as §4
The conditions of data set [5]: human, microsomes, 0.5 h, pH 7.4.
Method: as §4

Method for LSD1: TR-FRET Assay for LSD1 (Perkin Elmer)
Tranylcypromine (TCP), LSD1 inhibitor was procured from Selleckchem. […] Stop Solution containing 300 μM tranylcypromine in 1× LANCE Detection Buffer was added to the wells and incubated for 5 min at RT. Then, Detection mix containing 2 nM Eu-Ab and 50 nM ULight-Streptavidin in 1× LANCE Detection Buffer was prepared and added to the reaction mix. This mixture was incubated for 1 hour at room temperature.

For `O=C(/C=C/c1ccc(CNC2CC2c2ccc(-c3ccc(Cl)cc3)cc2)cc1)NO` (centres unmarked) [Example 5, (E)-3-(4-(((2-(4′-chloro-[1,1′-biphenyl]-4-yl)cyclopropyl)amino)methyl)phenyl)-N-hydroxyacrylamide TFA Salt], in data set [1], the “Metabolic stability HLM % remaining in 30 min” value was 86%. The “Metabolic stability MLM % remaining in 30 min” value in data set [2] amounted to 59%. Moreover, the EC50 worked out at 533 nM in the data set on CCRF-CEM; 54 nM in the data set with MV-4-11; 26 nM with HEL-92.1.7; 146 nM in the data set with OCI-AML3; 2300 nM in the data set with A375; 1600 nM with MDAMB231. Further, the EC50 with MM1S is 88 nM. The IC50 at LSD1 turned out to be 49 nM.
For `O=C(NO)c1cnc(N2CCC(CNC3CC3c3ccc(F)cc3)CC2)nc1` (centres unmarked) [Example 8, 2-(4-(((2-(4-fluorophenyl)cyclopropyl)amino)methyl)piperidin-1-yl)-N-hydroxypyrimidine-5-carboxamide TFA Salt], the “Metabolic stability HLM % remaining in 30 min” value in data set [1] came to 88%. In addition, in data set [2], the “Metabolic stability MLM % remaining in 30 min” value stood at 52%. Further, the EC50 came out at 119 nM in the data set on CCRF-CEM; 48 nM in the data set with MV-4-11; 42 nM with HEL-92.1.7; 46 nM in the data set on OCI-AML3; 698 nM with A375; 193 nM with MDAMB231. Moreover, in the data set with MM1S, the EC50 came to 7 nM. In [3], the IC50 turned out to be 88 nM.
As for `O=C(NO)c1cnc(N2CCC(NC3CC3c3ccc(OCc4ccc(F)cc4)cc3)CC2)nc1` (centres unmarked) [Example 12, 2-(4-((2-(4-((4-fluorobenzyl)oxy)phenyl)cyclopropyl)amino)piperidin-1-yl)-N-hydroxypyrimidine-5-carboxamide TFA Salt], the “Metabolic stability HLM % remaining in 30 min” value in data set [1] is 95%. The “Metabolic stability MLM % remaining in 30 min” value in data set [2] is 85%. Further, the EC50 in the data set with CCRF-CEM turned out to be 375 nM; in the data set on MV-4-11, 9 nM; in the data set on HEL-92.1.7, 4 nM; in the data set on OCI-AML3 it was 41 nM; in the data set on A375, 2800 nM; with MDAMB231, 1300 nM. Moreover, the EC50 in the data set with MM1S was 11 nM.
For the compound `O=C(NO)c1ccc(CCCN2CCC(CNC3CC3c3ccccc3)CC2)cc1` (centres unmarked) [Example 43, N-hydroxy-4-(3-(4-(((2-phenylcyclopropyl)amino)methyl)piperidin-1-yl)propyl)benzamide TFA Salt], the “Metabolic stability HLM % remaining in 30 min” value in [1] was 40%. Also, the “Metabolic stability MLM % remaining in 30 min” value in data set [2] was determined as 56%. Also, the EC50 came to 493 nM in the data set on CCRF-CEM; 2 nM in the data set on MV-4-11; 1 nM with HEL-92.1.7; 115 nM with OCI-AML3; 1030 nM in the data set with A375; 747 nM with MDAMB231.
Turning to `O=C(NO)c1ccc(CCCN2CC3(CC(NC4CC4c4ccccc4)C3)C2)cc1` (centres unmarked) [Example 46, N-hydroxy-4-(3-(6-((2-phenylcyclopropyl)amino)-2-azaspiro[3.3]heptan-2-1)propyl)benzamide TFA Salt], the “Metabolic stability MLM % remaining in 30 min” value in data set [4] was 54/47%. Further, the 50% inhibitory concentration (IC50) in data set [3] came out at 477 nM; at LSD1, 26 nM. Further, the “Metabolic stability HLM % remaining in 30 min” value in data set [5] is on record as 54/47%. For the same compound, in the data set with MM1S (MM1S cells), the EC50 was 71 nM.
Regarding `O=C(NO)c1ccc(CCCN2CCC(CNC3CC3c3ccc(F)cc3)CC2)cc1` (centres unmarked) [Example 47, 4-[3-(4-{[2-(4-Fluoro-phenyl)-cyclopropylamino]-methyl}-piperidin-1-yl)-propyl]-N-hydroxy-benzamide TFA Salt], the “Metabolic stability HLM % remaining in 30 min” value in data set [1] was 54%. In addition, the “Metabolic stability MLM % remaining in 30 min” value in data set [2] was determined as 66%. Besides, the EC50 in the data set with CCRF-CEM came out at 1400 nM; in the data set on MV-4-11, 5 nM; in the data set on HEL-92.1.7 it was 5 nM; in the data set on OCI-AML3, 146 nM; with A375 it was 3600 nM; with MDAMB231, 875 nM. For the same compound, the values for the IC50 (in data set [3]; on LSD1) were 51 nM and 6 nM, respectively.
As to `O=C(NO)c1ccc(CCCN2CCC(CNC3CC3c3ccc(OCc4ccc(F)cc4)cc3)CC2)cc1` (centres unmarked) [Example 52, 4-(3-(4-(((2-(4-((4-fluorobenzyl)oxy)phenyl)cyclopropyl)amino)methyl)piperidin-1-yl)propyl)-N-hydroxybenzamide TFA Salt], the “Metabolic stability HLM % remaining in 30 min” value in data set [1] was determined as 79%. Moreover, the “Metabolic stability MLM % remaining in 30 min” value in [2] came out at 56%. Also, the EC50 in the data set on CCRF-CEM worked out at 371 nM; with MV-4-11 it was 1 nM; with HEL-92.1.7, 5 nM; in the data set on OCI-AML3, 22 nM; in the data set with A375, 1700 nM; in the data set with MDAMB231, 891 nM. The 50% inhibitory concentration (IC50) in data set [3] is 12 nM; on LSD1, 4 nM.
